Measured values reported in the supplement of paper PMC10307832.

Assays:
Test in all cases: relative viability (nuclei count vs DMSO), 5 days (fraction); higher = more cells survive
[1] = compound: O=C(CCCCCCNC(=O)c1cnc(N(c2ccccc2)c2ccccc2)nc1)NO [Ricolinostat] + Nc1ncn([C@H]2C[C@H](O)[C@@H](CO)O2)c(=O)n1 [Decitabine] (partner 2 µM)
Summary of the method: (§1)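 The day after seeding in 1536-well plates, lung cancer cell lines were treated by pin tool with a single drug, or with a fixed anchor-drug dose together with five library-drug doses (not always all listed) in √10 steps. After 5 days, a combined fix-and-stain solution (final 0.05% Triton X-100, 1% formaldehyde, 1 ug/ml Hoechst) was added. Nuclei counted on 4× images gave relative viability as treated counts over vehicle counts, reported as the median of duplicate plates.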

[2] = compound: CC1=CN2C(=O)C=C(N=C2C(=C1)C(C)NC3=CC=CC=C3)N4CCOCC4 [TGX 221] + Nc1nc2[nH]cc(CCc3ccc(C(=O)N[C@@H](CCC(=O)O)C(=O)O)cc3)c2c(=O)[nH]1 [Pemetrexed] (partner 0.2 µM)
Summary of the method: as §1

[3] = compound: C1=CC=C(C(=C1)C2=CC=C(C=C2)C3=CSC4=C3C(=C(C(=O)N4)C#N)O)O + COc1cc2c(Oc3ccc(NC(=O)C4(C(=O)Nc5ccc(F)cc5)CC4)cc3F)ccnc2cc1OCCCN1CCOCC1 [Foretinib] (partner 0.25 µM)
Summary of the method: as §1

[4] = compound: O=C(CCCCCCNC(=O)c1cnc(N(c2ccccc2)c2ccccc2)nc1)NO [Ricolinostat] + Cc1cc(Nc2cc(N3CCN(C)CC3)nc(Sc3ccc(NC(=O)C4CC4)cc3)n2)n[nH]1 [Tozasertib] (partner 0.1 µM)
Summary of the method: as §1

Cell Line | relative viability ([1]; first compound 0.08 µM) | relative viability ([1]; first compound 0.253 µM) | relative viability ([1]; first compound 0.8 µM) | relative viability ([1]; first compound 2.53 µM) | relative viability ([2]; first compound 0.08 µM) | relative viability ([2]; first compound 0.253 µM) | relative viability ([2]; first compound 0.8 µM) | relative viability ([2]; first compound 2.53 µM) | relative viability ([2]; first compound 8 µM) | relative viability ([3]; first compound 0.08 µM) | relative viability ([3]; first compound 0.253 µM) | relative viability ([3]; first compound 0.8 µM) | relative viability ([3]; first compound 2.53 µM) | relative viability ([3]; first compound 8 µM) | relative viability ([4]; first compound 0.08 µM) | relative viability ([4]; first compound 0.253 µM) | relative viability ([4]; first compound 0.8 µM) | relative viability ([4]; first compound 2.53 µM)
ChaGo-K-1 | 0.58 | 0.495 | 0.51 | 0.509 | 0.264 | 0.259 | 0.236 | 0.231 | 0.254 | 0.882 | 0.9 | 1.08 | 1.02 | 0.723 | 0.201 | 0.234 | 0.224 | 0.226
EBC-1 | – | – | – | – | – | – | – | – | – | 0.103 | 0.101 | 0.123 | 0.0897 | 0.115 | – | – | – | –
EKVX | 0.31 | 0.322 | 0.299 | 0.346 | 0.404 | 0.356 | 0.34 | 0.375 | 0.395 | 0.882 | 0.828 | 0.799 | 0.831 | 0.743 | 0.354 | 0.373 | – | 0.384
EMC-BAC-2 | 0.796 | 0.938 | 0.901 | 0.722 | 0.468 | 0.43 | 0.428 | 0.464 | 0.463 | 1.07 | 1.1 | 0.989 | 0.963 | 0.896 | 0.318 | 0.234 | 0.204 | 0.206
EPLC-272H | – | 0.36 | 0.368 | 0.325 | 0.392 | 0.279 | 0.353 | 0.295 | 0.303 | 0.613 | 0.813 | 0.772 | 0.708 | 0.524 | 0.354 | 0.192 | 0.333 | 0.317
H3255 | 0.522 | 0.598 | 0.538 | 0.426 | 0.54 | 0.71 | 0.487 | 0.562 | 0.539 | 0.715 | 0.803 | 0.738 | 0.844 | 1.07 | 0.566 | 0.623 | 0.61 | 0.558
HARA | 0.335 | 0.408 | 0.464 | 0.405 | 0.216 | 0.234 | 0.258 | 0.3 | 0.221 | 0.721 | 1.08 | 0.938 | 0.882 | 0.706 | 0.106 | 0.16 | 0.076 | 0.0848
HCC-15 | 0.593 | 0.687 | 0.631 | 0.464 | 0.212 | 0.237 | 0.203 | 0.209 | 0.203 | 0.996 | 1.1 | 1.13 | 1.12 | 0.898 | 0.349 | 0.35 | 0.233 | 0.233
HCC-44 | 1 | 0.948 | 0.926 | 0.951 | 0.681 | 0.646 | 0.655 | 0.643 | 0.668 | – | – | – | – | – | 1.01 | 0.984 | 0.862 | 0.537
